Data on 14 molecules can be found in US20210177982A1, “MUCUS-PENETRATING PEPTIDES, DELIVERY VEHICLES AND METHODS OF THERAPY” (DNALite Therapeutics, Inc., priority 2018, published 2021).

For data set [1] the following is noted: 25° C., RP-HPLC, Ac-X-G-A-K-G-A-G-V-G L-amide; cited from earlier work.
For data set [2] the following is noted: pH 7 (No salt); cited from earlier work.
Data set [3] can be described thus: In-vivo distribution assay (intrarectal, colon cryosections, epifluorescence). More on the design: species or system BALB/c female mice. Conditions: peptide-coupled DiI/DiO lipid nanoparticle, 30 μg DNA intrarectally, colon after 4 hours, compared to base lipid nanoparticle. As to the method: Three separate lipid nanoparticle formulations were prepared, one coupled to SEQ ID NO: 29, another coupled to transactivator of transcription peptide (TAT; SEQ ID NO:37) and the last without any coupling, all carried plasmid DNA and included 0.5% mol DiI and DiO labeling. 30 μg of DNA encapsulated in the DiI/DiO lipid nanoparticle are dosed intrarectally in BALB/c female mice (Charles River Laboratory, MA) anesthetized under 1-3% isofluorane. After 4 hours, the mice are euthanized under 25% CO2 and the colon is removed and embedded in optimal cutting temperature (OCT) media. The OCT media sections are flash frozen at −80 degrees Celsius and intestinal sections are taken in a cryostat. Epifluorescence images are taken of crypts under 531 nm excitation with 593 nm emission and overlaid with brightfield illumination. FIGS. 32A-32B.

The target in a further data set is T1, Poliovirus Receptor (Homo sapiens, UniProt P15151).
T1 sequence (P15151 21-417): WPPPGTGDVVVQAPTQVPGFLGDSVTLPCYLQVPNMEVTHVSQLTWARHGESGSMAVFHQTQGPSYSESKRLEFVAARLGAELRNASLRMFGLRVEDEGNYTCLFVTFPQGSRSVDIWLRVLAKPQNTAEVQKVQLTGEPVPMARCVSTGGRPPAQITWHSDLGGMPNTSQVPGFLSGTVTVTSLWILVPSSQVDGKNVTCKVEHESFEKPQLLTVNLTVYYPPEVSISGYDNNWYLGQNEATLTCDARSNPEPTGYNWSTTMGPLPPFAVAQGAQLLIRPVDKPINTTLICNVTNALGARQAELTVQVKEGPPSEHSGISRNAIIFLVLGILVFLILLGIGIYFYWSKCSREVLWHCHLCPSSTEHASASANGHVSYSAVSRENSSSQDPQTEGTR
Conditions: cited from earlier work.

For the molecule `NCC(=O)O` [Gly, Glycine], in data set [1], the “ΔtR(Gly), pH 2, 20 mM H3PO4” value is recorded as 0.0; the “ΔtR(Gly), pH 2, 20 mM TFA” value is 0.0; the “ΔtR(Gly), pH 5, 10 mM PO4 Buffer” value is listed as 0.0; the “ΔtR(Gly), pH 7, 10 mM PO4 Buffer +50 mM NaCl” value was 0.0. In data set [1], the “ΔtR(Gly), pH 7, 10 mM PO4 Buffer +50 mM NaClO4” value is recorded as 0.0 and the “ΔtR(Gly), pH 7, 10 mM PO4 Buffer, No Salt” value (“ΔtR(Gly) … No Salt” below) is given as 0.0. For the same molecule, the “Fauchere Score” value in data set [2] is 0.

Turning to `N[C@@H](Cc1c[nH]cn1)C(=O)O` [His], in data set [1], the “ΔtR(Gly), pH 2, 20 mM H3PO4” value is listed as −7.0; the “ΔtR(Gly), pH 2, 20 mM TFA” value is 0.0; the “ΔtR(Gly), pH 5, 10 mM PO4 Buffer” value is −5.1; the “ΔtR(Gly), pH 7, 10 mM PO4 Buffer +50 mM NaCl” value was 4.7. Also, in data set [1], the “ΔtR(Gly), pH 7, 10 mM PO4 Buffer +50 mM NaClO4” value was 3.4 and the “ΔtR(Gly) … No Salt” value was 3.4. In addition, the “Fauchere Score” value in data set [2] was 0.130.

As to `CC[C@H](C)[C@H](N)C(=O)O` [Ile], in data set [1], the “ΔtR(Gly), pH 2, 20 mM H3PO4” value was 21.3; the “ΔtR(Gly), pH 2, 20 mM TFA” value was 21.4; the “ΔtR(Gly), pH 5, 10 mM PO4 Buffer” value is 22.2; the “ΔtR(Gly), pH 7, 10 mM PO4 Buffer +50 mM NaCl” value is 22.8. Further, in data set [1], the “ΔtR(Gly), pH 7, 10 mM PO4 Buffer +50 mM NaClO4” value is 23.0 and the “ΔtR(Gly) … No Salt” value is recorded as 22.4. In data set [2], the “Fauchere Score” value is 1.8.

As for `CC(C)C[C@H](N)C(=O)O` [Leu], in data set [1], the “ΔtR(Gly), pH 2, 20 mM H3PO4” value is reported as 23.4; the “ΔtR(Gly), pH 2, 20 mM TFA” value is given as 23.3; the “ΔtR(Gly), pH 5, 10 mM PO4 Buffer” value is recorded as 24.1; the “ΔtR(Gly), pH 7, 10 mM PO4 Buffer +50 mM NaCl” value is 24.6. Moreover, in data set [1], the “ΔtR(Gly), pH 7, 10 mM PO4 Buffer +50 mM NaClO4” value is given as 25.1 and the “ΔtR(Gly) … No Salt” value was 24.2. For the same molecule, the “Fauchere Score” value in data set [2] was 1.7.

In the case of `NCCCC[C@H](N)C(=O)O` [Lys], in data set [1], the “ΔtR(Gly), pH 2, 20 mM H3PO4” value is reported as −7.0; the “ΔtR(Gly), pH 2, 20 mM TFA” value is 2.8; the “ΔtR(Gly), pH 5, 10 mM PO4 Buffer” value is listed as −3.7; the “ΔtR(Gly), pH 7, 10 mM PO4 Buffer +50 mM NaCl” value is −2.0. Moreover, in data set [1], the “ΔtR(Gly), pH 7, 10 mM PO4 Buffer +50 mM NaClO4” value is given as 3.4 and the “ΔtR(Gly) … No Salt” value is on record as −1.1. Further, the “Fauchere Score” value in data set [2] is given as −0.990.

Take `CSCC[C@H](N)C(=O)O` [Met]: in data set [1], the “ΔtR(Gly), pH 2, 20 mM H3PO4” value was 16.1; the “ΔtR(Gly), pH 2, 20 mM TFA” value is given as 15.7; the “ΔtR(Gly), pH 5, 10 mM PO4 Buffer” value is reported as 16.4; the “ΔtR(Gly), pH 7, 10 mM PO4 Buffer +50 mM NaCl” value is given as 17.3. In data set [1], the “ΔtR(Gly), pH 7, 10 mM PO4 Buffer +50 mM NaClO4” value is given as 16.8 and the “ΔtR(Gly) … No Salt” value is reported as 16.3. Moreover, in data set [2], the “Fauchere Score” value is listed as 1.230.

Take `N[C@@H](Cc1ccccc1)C(=O)O` [Phe]: in data set [1], the “ΔtR(Gly), pH 2, 20 mM H3PO4” value is given as 29.1; the “ΔtR(Gly), pH 2, 20 mM TFA” value is 29.1; the “ΔtR(Gly), pH 5, 10 mM PO4 Buffer” value is on record as 30.1; the “ΔtR(Gly), pH 7, 10 mM PO4 Buffer +50 mM NaCl” value is listed as 30.1. Moreover, in data set [1], the “ΔtR(Gly), pH 7, 10 mM PO4 Buffer +50 mM NaClO4” value is listed as 30.8 and the “ΔtR(Gly) … No Salt” value is 29.9. For the same molecule, in data set [2], the “Fauchere Score” value is listed as 1.79.

On to `O=C(O)[C@@H]1CCCN1` [Pro], for which, in data set [1], the “ΔtR(Gly), pH 2, 20 mM H3PO4” value is given as 9.4; the “ΔtR(Gly), pH 2, 20 mM TFA” value is given as 9.0; the “ΔtR(Gly), pH 5, 10 mM PO4 Buffer” value was 9.4; the “ΔtR(Gly), pH 7, 10 mM PO4 Buffer +50 mM NaCl” value is 10.4. Further, in data set [1], the “ΔtR(Gly), pH 7, 10 mM PO4 Buffer +50 mM NaClO4” value is reported as 9.9 and the “ΔtR(Gly) … No Salt” value is listed as 9.7. Moreover, the “Fauchere Score” value in data set [2] is 0.720.

Take `C[C@@H](O)[C@H](N)C(=O)O` [Thr]: in data set [1], the “ΔtR(Gly), pH 2, 20 mM H3PO4” value is on record as 2.8; the “ΔtR(Gly), pH 2, 20 mM TFA” value is listed as 2.3; the “ΔtR(Gly), pH 5, 10 mM PO4 Buffer” value is listed as 2.8; the “ΔtR(Gly), pH 7, 10 mM PO4 Buffer +50 mM NaCl” value is listed as 4.1. For the same molecule, in data set [1], the “ΔtR(Gly), pH 7, 10 mM PO4 Buffer +50 mM NaClO4” value is recorded as 2.5 and the “ΔtR(Gly) … No Salt” value is listed as 3.9. For the same molecule, the “Fauchere Score” value in data set [2] is 0.260.

As for `N[C@@H](Cc1c[nH]c2ccccc12)C(=O)O` [Trp], in data set [1], the “ΔtR(Gly), pH 2, 20 mM H3PO4” value is reported as 32.3; the “ΔtR(Gly), pH 2, 20 mM TFA” value is recorded as 32.4; the “ΔtR(Gly), pH 5, 10 mM PO4 Buffer” value is given as 33.2; the “ΔtR(Gly), pH 7, 10 mM PO4 Buffer +50 mM NaCl” value is 33.0. Also, in data set [1], the “ΔtR(Gly), pH 7, 10 mM PO4 Buffer +50 mM NaClO4” value is 33.7 and the “ΔtR(Gly) … No Salt” value was 32.9. In addition, in data set [2], the “Fauchere Score” value is recorded as 2.250.

Turning to `N[C@@H](Cc1ccc(O)cc1)C(=O)O` [Tyr], in data set [1], the “ΔtR(Gly), pH 2, 20 mM H3PO4” value is reported as 15.4; the “ΔtR(Gly), pH 2, 20 mM TFA” value is on record as 14.7; the “ΔtR(Gly), pH 5, 10 mM PO4 Buffer” value is given as 15.2; the “ΔtR(Gly), pH 7, 10 mM PO4 Buffer +50 mM NaCl” value is 16.0. Further, in data set [1], the “ΔtR(Gly), pH 7, 10 mM PO4 Buffer +50 mM NaClO4” value is on record as 15.1 and the “ΔtR(Gly) … No Salt” value is reported as 15.4. Moreover, in data set [2], the “Fauchere Score” value is 0.960.

With `CC(C)[C@H](N)C(=O)O` [Val], in data set [1], the “ΔtR(Gly), pH 2, 20 mM H3PO4” value is given as 13.8; the “ΔtR(Gly), pH 2, 20 mM TFA” value is recorded as 13.4; the “ΔtR(Gly), pH 5, 10 mM PO4 Buffer” value is on record as 14.0; the “ΔtR(Gly), pH 7, 10 mM PO4 Buffer +50 mM NaCl” value is given as 15.0. Besides, in data set [1], the “ΔtR(Gly), pH 7, 10 mM PO4 Buffer +50 mM NaClO4” value is 14.6 and the “ΔtR(Gly) … No Salt” value is reported as 14.4. The “Fauchere Score” value in data set [2] is on record as 1.220.

On to “GRKKRRQRRRPQ (Human immunodeficiency virus) [SEQ ID NO. 37]”, for which, in data set [3], the “distribution of the particle at the surface of the intestinal epithelial cells” value was “reduced the distribution of the particle at the surface of the intestinal epithelial cells”.

In the case of TVDNPASTTNKDKLFAV [SEQ ID NO. 28], the “interaction with the Poliovirus Receptor” value on Poliovirus Receptor is recorded as “has been shown to interact with the Poliovirus Receptor”.
